Data on three compounds can be found in patent publication US20250339569A1, “CARBONIC ANHYDRASE IX LIGANDS” (priority 2021, published 2025).

Molecules are shown by their SMILES. Where two headings read alike, the source gives them in different places.

Data set [1] is described as follows: Plasma stability assay, mouse plasma. Conditions: mouse plasma, 37°C, 24 h.
A short description of data set [2]: Plasma stability assay, human plasma. Conditions: 37°C.
The next data set concerns the target human CAIX (Homo sapiens, UniProt Q16790). The experiment in a line: Radioligand saturation binding and equilibration on CHO-huCAIX. Further details: host or cells: CHO-VGT / CHO cells. On the procedure:
(§1) After attainment of equilibrium, the cells were harvested, and the bound fraction of the compounds was measured. The resulting saturation binding data were analyzed using Graph Pad Prism 8.3.
(§2) CHO cells transfected with human, dog, and mouse CAIX (CHO-huCA9 T04J-1/20 K1, CHO-dogCA9 T05J-9/20 K4, CHO-murCA9 T05J-3/20 K4) were obtained from InSCREENex (Germany).
(§3) A molar excess of 3BP-3565 was used as a blocking peptide to assess non-specific binding in autoradiographic studies. 3BP-3565 binds with a similar affinity to CAIX and blocks binding sites of test compounds. For the blocking solution, a 10 mM stock solution of 3BP-3565 was prepared by dissolution in DMSO.
(§4) CHO cells were maintained in Ham's medium supplemented with 10% fetal bovine serum, 2 mM L-glutamine, 100 U/mL Penicillin and 0.1 mg/mL streptomycin under standard cell culture conditions. The cells were grown in uncoated cell culture flasks (150 cm^2, Biochrom) to subconfluence and then split 1:2-1:3. Approximately 24 hours before the assay, cells were detached by incubation with Accutase and carefully tapping the flasks. Detached cells were resuspended in medium and collected by centrifugation (300 g, 5 min, RT). Cell pellets were resuspended in cell culture medium and counted using a particle counter (CASY Model TT, Scharfe Systems, Germany). Cell concentrations were adjusted to 3×10^5 mL^−1, and 1.000 μL per well of the suspension were dispensed into poly-D-lysine-coated flat-clear-bottom 24 well plates.
(§5) Compound radiolabeling was performed as follows. […] Then, 25 mg/mL methionine in 1 M sodium acetate buffer pH 5 was added at a final concentration of 0.1 M sodium acetate. Subsequently, the mixture was heated to 80° C. for 25 min, followed by cooling for 5 minutes. Finally, 20 μL of 200 mg/mL ascorbic acid solution, 2.5 μL of 5 mg/mL DTPA and 2.5 μL of 5% TWEEN-20 per 100 μL reaction mixture were added, resulting in the concentrated study solution. For quality control, an aliquot of the labeling solution was diluted 1:40 with 0.1% TWEEN-20 in 0.1 M sodium acetate buffer pH 5. Five microliters of the diluted labeling solution were injected onto a Poroshell SB-C18 2.1×50 mm, 2.7 μm column. HPLC analysis was performed as follows: Gradient A: H2O, 0.1% TFA, Gradient B: Acetonitrile (MeCN), gradient from 5% B to 70% B within 15 min, flow rate of 0.5 mL/min; detector: NaI, DAD 215 nm. The peak eluting with the dead volume represents free radionuclide, the peak eluting with the ligand-specific retention time as determined with a non-labeled sample represents the radiolabeled compound.
The assessment of the time needed until attainment of equilibration on CHO-huCAIX and CHO-dgCAIX was performed as follows. The 10 mM 3BP-3565 stock solution was diluted with assay medium (Ham's medium without additives) to prepare an 8-μM blocking working solution. The radiolabeling mixtures were diluted with assay medium to prepare 160 nM radioligand working solutions. Subsequently, 1.6 and 3.2 nM radioligand dilutions were prepared by diluting the radioligand working solutions 1:100 and 1:50, respectively, with assay medium. Approximately 24 hours after re-seeding (3×10^5 mL^−1 cells per well), the medium was aspirated, and the cells were washed once with assay medium (700 μL). To determine total binding, 700 μL of binding medium and 100 μL of the radioligand dilutions were added to the wells in triplicates.
To determine non-specific binding, 600 μL of binding medium, 100 μL of the […] 3BP-3565 blocking solution and 100 μL of the radioligand dilutions were added to the wells in triplicates. The plates were incubated for 1 h, 3 h, 6 h, and 8 h at 37° C. under standard cell culture conditions (5% CO2). At the end of the incubation time, the plates were placed on ice while aspirating the radioligand solutions. Subsequently, the cells were washed with ice-cold PBS (0.5 mL, 1 mL, 1 mL). […]

Data set [3] can be described thus: Biodistribution study (SPECT/CT) in SK-RC-52 tumor-bearing mice with or without gelofusine. The class given is in vivo, NMRI nude mice. The note with it: female, NMRI nude, mouse, in vivo, iv, total radioactivity, peak tumor uptake, typical (conclusion). On the procedure:
The effect on tumor uptake of prior injection of gelofusine for kidney protection was investigated in mice bearing the SK-RC-52 tumor. Biodistribution was evaluated using in vivo SPECT/CT imaging. Prior to the in vivo study the compounds (ligands) were initially radiolabeled with In-111 and the stability of radiolabeled compounds was evaluated in buffer at three different timepoints.
The study was performed in female NMRI nude mice (approximately 6 weeks of age) from Janvier Labs, France, housed up to 5 mice per cage.
The column was washed with 2 mL water, and then the final product was eluted from the column in EtOH solution (50%) • The sample was formulated in PBS to the final concentration of 150 MBq/mL and 5 nmol/mL.
SK-RC-52 cells were cultured in RPMI 1640 with GlutaMax-I (Thermo Fisher Scientific #61870044) supplemented with 10% fetal bovine serum+1% penicillin/streptomycin, harvested, washed twice in RPMI 1640 and resuspended at 2×10^7 cells/mL in RPMI 1640. HT-29 cells were cultured in McCoy's 5a Medium Modified (Sigma #M9309). For inoculation of HT-29 cells, cells were harvested, washed twice in PBS and resuspended at 5×10^7 cells/mL in PBS. Cells were kept on ice until inoculation.
Animals were anaesthetized (isoflurane, 2-4% in ambient air supplemented with 100% 02) prior to tumor inoculation. The tumor cells (100 μL suspension of either SK-RC-52 cells (2×10^6 cells/animal) or HT-29 cells (5×10^6 cells/animal)) were subcutaneously inoculated in the right flank using a 1-mL syringe equipped with a 27 G needle. Tumor growth and animal weight were measured twice per week. Tumor size was measured by caliper and the volume was estimated using the following formula: 0.52×(length×width^2). When tumor sizes reached 150-250 mm^3, animals were randomized into groups (n=3) of similar average tumor volume and body weight.
Animals were injected intravenously with In-111-labeled compounds (single bolus, 22.3-31.2 MBq, ˜1 nmol ligand, injection volume: 100 μL) in the lateral tail vein using a 29 G syringe.
CT was performed with helical scan, 300 ms exposure, reconstruction resolution of 250 μm. SPECT was performed with multi-pinhole scan and a 30 s frame time. For the quantification of the radioactivity uptake, regions of interests (ROIs) were drawn over the tumor, kidney, liver, and heart (estimate of blood) identified on the images. Uptake was expressed as percent of injected dose per gram tissue (% ID/g).

For data set [4] the following is noted: dog, in vivo.
Another data set has as its target T1, mouse CAIX (Mus musculus, UniProt Q8VHB5).
T1 construct: host or cells: CHO-VGT / CHO cells
Put plainly: Radioligand saturation binding on CHO-msCAIX. Conditions: CHO-msCAIX, single experiment. On the procedure: as §1, §2, §3, §4, §5
The radioligand saturation binding on CHO-msCAIX was determined as follows. […] Their associated radioactivity was counted using a gamma counter and normalized to the measured protein concentration of each well. […]

Data set [5] is described as follows: In vivo efficacy, biodistribution and tolerability of 225Ac-DPI-4452 in HT-29 xenograft mouse model. Details: species or system NMRI nude mice. Conditions: female, NMRI nude, mouse, iv, total radioactivity, HT-29 model, 15 kBq, 4 hours after dosing.
Data set [6] relates to HT-29 (CRC) human cancer cell line xenograft. Described as above. Conditions: HT-29 model. Details: species or system NMRI nude mice.
Data set [7] in a line: In vivo efficacy, biodistribution and tolerability of 225Ac-DPI-4452 in SK-RC-52 xenograft mouse model. Further details: species or system NMRI nude mice. The note with it: female, NMRI nude, mouse, iv, total radioactivity, SK-RC-52 model, 15 kBq, 4 hours after dosing.
In data set [8] the test system is SK-RC-52 (ccRCC) human cancer cell line xenograft. The data set is described as above. Further details: species or system NMRI nude mice. The note with it: SK-RC-52 model.
Where [9] appears, read: colon, small intestine and stomach.
Setting [10] is: kidney, read-out: kidney uptake.

T1 sequence (Q8VHB5 32-437): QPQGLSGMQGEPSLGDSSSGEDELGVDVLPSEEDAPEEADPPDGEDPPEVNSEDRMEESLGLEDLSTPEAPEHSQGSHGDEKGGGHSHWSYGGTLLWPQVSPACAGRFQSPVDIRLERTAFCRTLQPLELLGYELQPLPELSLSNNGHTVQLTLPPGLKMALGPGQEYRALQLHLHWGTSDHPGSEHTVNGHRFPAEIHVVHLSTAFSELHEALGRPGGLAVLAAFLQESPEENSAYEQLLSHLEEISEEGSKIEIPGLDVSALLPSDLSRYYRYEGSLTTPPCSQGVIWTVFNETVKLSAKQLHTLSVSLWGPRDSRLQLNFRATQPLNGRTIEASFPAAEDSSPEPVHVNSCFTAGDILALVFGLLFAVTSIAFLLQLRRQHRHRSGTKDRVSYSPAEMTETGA

In the case of `CC(C)C[C@@H]1NC(=O)[C@H](Cc2cccc(NC(=O)CCCS(N)(=O)=O)c2)NC(=O)[C@H](CC(=O)O)NC(=O)[C@H]2CCCN2C(=O)[C@H](CCC(=O)O)NC(=O)[C@@H](NC(=O)[C@H](CCC(N)=O)NC(=O)CN2CCN(C(=O)CN3CCN(CC(=O)O)CCN(CC(=O)O)CCN(CC(=O)O)CC3)CC2)CSCc2cccc(c2)CSC[C@@H](C(N)=O)NC(=O)[C@H](CO)NC(=O)[C@H](Cc2c[nH]c3ccccc23)NC(=O)[C@H]([C@@H](C)O)NC1=O` (natLu complex, metal not drawn) [3BP-4555], the “% intact compound remaining (incubation time)” value in data set [1] is recorded as >95%. In [2], the “% intact compound remaining after 24 h incubation” value was >95%.
Regarding `CC(C)C[C@@H]1NC(=O)[C@H](Cc2ccc(NC(=O)CCS(N)(=O)=O)cc2)NC(=O)[C@H](CC(=O)O)NC(=O)[C@H]2CCCN2C(=O)[C@H](CCC(=O)O)NC(=O)[C@@H](NC(=O)[C@H](CCC(N)=O)NC(=O)CN2CCN(CC(=O)O)CCN(CC(=O)O)CCN(CC(=O)O)CC2)CSCc2cccc(c2)CSC[C@@H](C(N)=O)NC(=O)[C@H](CO)NC(=O)[C@H](Cc2c[nH]c3ccccc23)NC(=O)[C@H]([C@@H](C)O)NC1=O` [[^111In]In-DPI-4501, metal not drawn], at human CAIX (CHO-huCAIX), the dissociation rate constant (koff) – broadly, the rate constant with which the complex falls apart – was 0.00012 s⁻¹. The Kd on human CAIX (CHO-huCAIX, first independent experiment, read-out: pKd (converted)) was 0.158 nM; on human CAIX (CHO-huCAIX, read-out: Mean pKd ± SD (converted)), 0.251 nM; at human CAIX (CHO-huCAIX, second independent experiment, read-out: pKd (converted)), 0.398 nM; at human CAIX (human CAIX expressed in CHO cells, 8 h at 37°C, read-out: pKd (converted)), ≤ 1 nM; at mouse CAIX (read-out: pKd (converted)) it was 12.6 nM. The tissue uptake in data set [3] turned out to be 7 %ID/g. Also, the half-life (as a rule, the time needed for the level to fall by half in the phase considered) in data set [4] came to 68.9 min; in data set [4] (iv) it was 5.88 min. Also, the “Mean pKd ± SD” value on mouse CAIX was 7.9.
On to `CC(C)C[C@@H]1NC(=O)[C@H](Cc2cccc(NC(=O)CCCS(N)(=O)=O)c2)NC(=O)[C@H](CC(=O)O)NC(=O)[C@H]2CCCN2C(=O)[C@H](CCC(=O)O)NC(=O)[C@@H](NC(=O)[C@H](CCC(N)=O)NC(=O)CN2CCN(C(=O)CN3CCN(CC(=O)O)CCN(CC(=O)O)CCN(CC(=O)O)CC3)CC2)CSCc2cccc(c2)CSC[C@@H](C(N)=O)NC(=O)[C@H](CO)NC(=O)[C@H](Cc2c[nH]c3ccccc23)NC(=O)[C@H]([C@@H](C)O)NC1=O` [^225Ac-DPI-4452, metal not drawn], for which the tissue uptake at 4 h in [5] (HT-29 tumor, ex vivo gamma counter, read-out: tumor uptake) is 11.3 ± 1.3 %ID/g; in data set [5] (setting [9]) it was < 1.1 %ID/g; in data set [5] (setting [10]), 7.9 ± 1.3 %ID/g; in data set [7] (SK-RC-52 tumor, ex vivo gamma counter, read-out: tumor uptake) it was 39.1 ± 1.6 %ID/g; in [7] (setting [9]), < 1.1 %ID/g; in data set [7] (setting [10]), 4.9 ± 0.2 %ID/g. Further, the “creatinine values versus vehicle” value in data set [6] (135 kBq, day 14) was “slightly elevated”; in [8] (135 kBq, day 14), “slightly elevated”. The tolerability of treatment result in data set [6] (single 15, 45 or 135 kBq i.v.) was “well tolerated”; in data set [8] (single 15, 45 or 135 kBq i.v.) it was “well tolerated”.
